Patent US5191079A, “Quinolinecarboxylic acid derivatives” (priority 1990, dated 1993)

Experiment: Acute toxicity, Experiment 6
Assay type: in vivo, F344/DuCrj male and female rats
Settings: oral, 1000 and 2000 mg/kg, one week
Protocol: 9,1-(Methylimino)methano-7-fluoro-8-(2-methoxymethylmorpholino)-5-oxo-5H-thiazolo[3,2-a]quinoline-4-carboxylic acid (compound of Example 20) [the compound (E) of the present invention] was suspended in 1% aqueous gum arabic to prepare a suspension in concentration of 100 mg/ml. The suspension was orally administered to F344/DuCrj male and female rats (5 weeks age, weighing 110 to 115 g in male, 91 to 95 g in female, 3 rats in each group), which had been fasted for 5 hours, at a rate of 1000 and 2000 mg/kg body weight of the test compound (E).

SMILES: COCC1CN(c2c(F)cc3c(=O)c(C(=O)O)c4scc5n4c3c2N(C)C5)CCO1 (stereo not shown) [Compound (E), 9,1-(Methylimino)methano-7-fluoro-8-(2-methoxymethylmorpholino)-5-oxo-5H-thiazolo[3,2-a]quinoline-4-carboxylic acid]
- death of rats: no death of rats was observed
